Measurements reported in patent publication US11952610B2, “Digital microbiology” (priority 2016, dated 2024).
≈ marks a conversion by molar mass, not a printed value. Entries after “also recorded” stand apart in the source; their conditions may differ. Where two headings read alike, the source gives them in different places.

Experiments:
[1] = test system: Escherichia coli (ATCC®25922™); assay: Antimicrobial susceptibility testing in water-in-oil droplets, microscope reading; format: cell-based; conditions: for MIC: Escherichia coli, ATCC25922
Description: (§1) (at 30° C. for the C. albicans).

E. coli ATCC®25922 = conditions: cited from earlier work
[2] = test system: Aspergillus restrictus CECT 20807; assay: Inhibition of mold growth outside the droplet aqueous phase, antifungal in oil phase; format: cell-based; conditions: 150 mg/L in the oil phase, 48 hours
MRSA ATCC 49476 = assay: Droplets with labeled fibrinogen, BSA +/- cefoxitin: growth and labeling; format: cell-based, Staphylococcus aureus
Description: (§2) Fibrinogen (Sigma Aldrich) that binds to Staphylococcus aureus (S. aureus cells express surface proteins that promote attachment to host proteins such as fibronectin) was labeled using Kit Lynx LNK174PETR (Abd Serotec). […] After incubation at 37° C. for 3 hours, the samples were read using the ZOE™ Fluorescent Cell Imager (Bio-Rad Laboratories). The tables below show growth (visible) and labeling (fluorescence) obtained for the tested strains of MSSA and MRSA.

MRSA ATCC BAA 2312 = assay: as above; format: cell-based, Staphylococcus aureus
Description: as §2

MSSA ATCC 29213 = assay: as above; format: cell-based, Staphylococcus aureus
Description: as §2

MSSA ATCC 6538 = assay: as above; format: cell-based, Staphylococcus aureus
Description: as §2

S. aureus ATCC®29213™ [3] = assay: Antimicrobial susceptibility testing in water-in-oil droplets, microscope reading; format: cell-based, Staphylococcus aureus
Description: as §1

E. faecalis ATCC®29212™ [4] = assay: as above; format: cell-based, Enterococcus faecalis
Description: as §1

S. aureus ATCC®29213™ [5] = conditions: cited from earlier work
E. faecalis ATCC®29212™ [6] = conditions: cited from earlier work
[7] = droplets at 37° C., read after 4 and/or 6 h, read-out: Observed MIC
[8] = conjugate 1/200, BSA 0 + FOX 0, 3 h at 37° C.
[9] = conjugate 1/200, BSA 2.5% + FOX 0, 3 h at 37° C.
[10] = conjugate 1/200, BSA 2.5% + FOX 2 mg/L, 3 h at 37° C.
[11] = conjugate 1/200, BSA 0 + FOX 2 mg/L, 3 h at 37° C.

CCN1CCN(C(=O)N[C@@H](C(=O)N[C@@H]2C(=O)N3[C@@H]2SC(C)(C)[C@@H]3C(=O)O)c2ccccc2)C(=O)C1=O [Piperacillin]
Growth in droplets (observation in words) ([1]; 1 mg/L, reading time 4 h): Limited growth in droplets with cells forming filaments
Growth in droplets (observation in words) ([1]; 2 mg/L, reading time 4 h): No growth
MIC [1, 7]: 2 µg/mL (≈ 3.86 µM)
Expected MIC (CLSI) (E. coli ATCC®25922): 1 to 4 µg/mL

O=C1OC2(c3cc(I)c(O)c(I)c3Oc3c2cc(I)c(O)c3I)c2c(Cl)c(Cl)c(Cl)c(Cl)c21 [rose bengal, 4,5,6,7-tetrachloro-2′,4′,5′,7′-tetraiodofluorescein]
Mold growth outside the aqueous phase [2]: the hyphae spreading was inhibited and mold growth was confined within the droplet; also recorded: inhibition of mold growth outside the aqueous phase

COc1cc(Cc2cnc(N)nc2N)cc(OC)c1OC [Trimethoprim]
Growth in droplets (observation in words) ([1]; 0.125 mg/L, reading time 4 h): Limited growth in few
Growth in droplets (observation in words) ([1]; 0.25 mg/L, reading time 4 h): Limited growth in few
Growth in % of droplets ([1]; 0.25 mg/L, reading time 6 h): Growth in 20-30% of
Growth in droplets (observation in words) ([1]; 0.5 mg/L, reading time 4 h): One or few small
Growth in droplets (observation in words) ([1]; 0.5 mg/L, reading time 6 h): Limited growth in few
Growth in droplets (observation in words) ([1]; 1 mg/L, reading time 4 h): No growth
Growth in droplets (observation in words) ([1]; 1 mg/L, reading time 6 h): Limited growth in few
Growth in droplets (observation in words) ([1]; 2 mg/L, reading time 4 h): No growth
Growth in droplets (observation in words) ([1]; 2 mg/L, reading time 6 h): No growth (one small
MIC ([1]; reading time 4 h, read-out: Observed MIC (4 h)): 1 µg/mL (≈ 3.44 µM)
MIC ([1]; reading time 6 h, read-out: Observed MIC (6 h)): 2 µg/mL (≈ 6.89 µM)
Expected MIC (CLSI) (E. coli ATCC®25922): 0.5 to 2 µg/mL

Fibrinogen
Labeling (fluorescence) (MRSA ATCC 49476; [8]): Fluo +++
Labeling (fluorescence) (MRSA ATCC 49476; [9]): Fluo +++
Labeling (fluorescence) (MRSA ATCC 49476; [10]): Fluo +++
Labeling (fluorescence) (MRSA ATCC BAA 2312; [8]): BN (+)
Labeling (fluorescence) (MRSA ATCC BAA 2312; [11]): BN (+)
Labeling (fluorescence) (MRSA ATCC BAA 2312; [9]): Fluo +++
Labeling (fluorescence) (MRSA ATCC BAA 2312; [10]): Fluo +++
Labeling (fluorescence) (MSSA ATCC 29213; [8]): Fluo ++
Labeling (fluorescence) (MSSA ATCC 29213; [11]): BN (+)
Labeling (fluorescence) (MSSA ATCC 29213; [9]): Fluo +++
Labeling (fluorescence) (MSSA ATCC 29213; [10]): BN (+)
Labeling (fluorescence) (MSSA ATCC 6538; [8]): Fluo +++
Labeling (fluorescence) (MSSA ATCC 6538; [11]): BN (+)
Labeling (fluorescence) (MSSA ATCC 6538; [9]): Fluo +++
Labeling (fluorescence) (MSSA ATCC 6538; [10]): BN (+)

O=C(N[C@H](CO)[C@H](O)c1ccc([N+](=O)[O-])cc1)C(Cl)Cl [Chloramphenicol]
Growth in % of droplets ([1]; 0.5 mg/L, reading time 4 h): 30-50% of droplets
Growth in % of droplets ([1]; 1 mg/L, reading time 4 h): 20-30% of droplets
Growth in % of droplets ([1]; 1 mg/L, reading time 6 h): 30-50% of droplets
Growth in droplets (observation in words) ([1]; 2 mg/L, reading time 4 h): No growth
Growth in droplets (observation in words) ([1]; 2 mg/L, reading time 6 h): Limited growth in few
Growth in droplets (observation in words) ([1]; 4 mg/L, reading time 4 h): No growth
Growth in droplets (observation in words) ([1]; 4 mg/L, reading time 6 h): No growth
Growth in droplets (observation in words) ([1]; 8 mg/L, reading time 4 h): No growth
MIC [1, 7]: 2 to 4 µg/mL (≈ 6.19 to 12.4 µM)
Expected MIC (CLSI) (E. coli ATCC®25922): 2 to 8 µg/mL

CN[C@H](CC(C)C)C(=O)N[C@H]1C(=O)N[C@@H](CC(N)=O)C(=O)N[C@H]2C(=O)N[C@H]3C(=O)N[C@H](C(=O)N[C@H](C(=O)O)c4cc(O)cc(O)c4-c4cc3ccc4O)[C@H](O)c3ccc(c(Cl)c3)Oc3cc2cc(c3O[C@@H]2O[C@H](CO)[C@@H](O)[C@H](O)[C@H]2O[C@H]2C[C@](C)(N)[C@H](O)[C@H](C)O2)Oc2ccc(cc2Cl)[C@H]1O [Vancomycin]
Growth in % of droplets (S. aureus ATCC®29213™ [3]; 0.25 mg/L, reading time 4 h): 25-50% of droplets
Growth in % of droplets (S. aureus ATCC®29213™ [3]; 0.25 mg/L, reading time 6 h): ~50% of the droplets
Growth in droplets (observation in words) (S. aureus ATCC®29213™ [3]; 0.5 mg/L, reading time 4 h): 1 droplet with cells
Growth in % of droplets (S. aureus ATCC®29213™ [3]; 0.5 mg/L, reading time 6 h): ~10% of droplets
Growth in droplets (observation in words) (S. aureus ATCC®29213™ [3]; 1 mg/L, reading time 6 h): No growth
Growth in % of droplets (E. faecalis ATCC®29212™ [4]; 0.25 mg/L, reading time 4 h): Growth in 25-50%
Growth in % of droplets (E. faecalis ATCC®29212™ [4]; 0.25 mg/L, reading time 6 h): Growth in 20-50%
Growth in % of droplets (E. faecalis ATCC®29212™ [4]; 0.5 mg/L, reading time 4 h): Growth in 25-30%
Growth in % of droplets (E. faecalis ATCC®29212™ [4]; 0.5 mg/L, reading time 6 h): ~30% of droplets
Growth in droplets (observation in words) (E. faecalis ATCC®29212™ [4]; 1 mg/L, reading time 4 h): Limited growth in
Growth in % of droplets (E. faecalis ATCC®29212™ [4]; 1 mg/L, reading time 6 h): Growth in 20-30%
Growth in droplets (observation in words) (E. faecalis ATCC®29212™ [4]; 2 mg/L, reading time 4 h): No growth
Growth in droplets (observation in words) (E. faecalis ATCC®29212™ [4]; 2 mg/L, reading time 6 h): No growth
Expected MIC (CLSI) (S. aureus ATCC®29213™ [5]): 0.25 to 1 µg/mL
Expected MIC (CLSI) (E. faecalis ATCC®29212™ [6]): 1 to 4 µg/mL
